Source: paper PMC3189943, “Catalytic Properties of the Isolated Diaphorase Fragment of the NAD^+-Reducing [NiFe]-Hydrogenase from Ralstonia eutropha” (PLoS ONE, 2011)
Like-named read-outs stand apart in the source and are kept apart here. Each block holds one compound with its values, some of them ahead of it.

How the values were obtained:
[1] = biological target: T1, HoxFU (diaphorase moiety of the NAD+-reducing soluble [NiFe]-hydrogenase, SH) (Cupriavidus necator, UniProt P22317); test: protein film electrochemistry, inhibition of NAD+ reduction current; format: biochemical; conditions: -412 mV, 0.14 mM NAD+, 50 mM Tris-HCl pH 8.0; enzyme adsorbed on graphite electrode
T1 construct: gene hoxF; HoxFU heterodimer without HoxHY and HoxI; N-terminal Strep-tag II on HoxF kept; plasmid pGE553, homologous overproduction in R. eutropha HF424; Strep-Tactin plus size exclusion; apparent 110 kDa; HoxF 67 kDa, HoxU 27 and 23 kDa (both with original termini, unidentified modification); FMN and Fe-S clusters; with NAD-reducing hydrogenase HoxS subunit gamma

[2] = biological target: T1, HoxFU (diaphorase moiety of the NAD+-reducing soluble [NiFe]-hydrogenase, SH); test: protein film electrochemistry, Dixon plot; format: biochemical

T1 sequence (P22317 whole entry): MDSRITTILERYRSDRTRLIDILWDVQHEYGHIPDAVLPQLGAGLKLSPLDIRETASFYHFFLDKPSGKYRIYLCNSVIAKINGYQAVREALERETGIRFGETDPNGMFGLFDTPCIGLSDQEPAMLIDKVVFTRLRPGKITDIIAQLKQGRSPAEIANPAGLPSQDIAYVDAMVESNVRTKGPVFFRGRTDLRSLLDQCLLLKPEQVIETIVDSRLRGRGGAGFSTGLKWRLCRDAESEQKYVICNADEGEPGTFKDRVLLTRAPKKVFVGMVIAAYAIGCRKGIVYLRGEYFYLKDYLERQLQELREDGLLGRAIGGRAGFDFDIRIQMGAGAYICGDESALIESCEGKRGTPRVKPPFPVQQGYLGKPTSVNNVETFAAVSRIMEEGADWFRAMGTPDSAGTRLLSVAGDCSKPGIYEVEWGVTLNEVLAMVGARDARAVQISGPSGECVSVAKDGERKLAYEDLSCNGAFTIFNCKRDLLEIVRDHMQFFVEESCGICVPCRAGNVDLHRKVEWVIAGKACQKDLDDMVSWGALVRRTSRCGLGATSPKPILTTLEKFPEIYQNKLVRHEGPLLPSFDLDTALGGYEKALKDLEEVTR
T1 sequence (P22318 2-234 partner): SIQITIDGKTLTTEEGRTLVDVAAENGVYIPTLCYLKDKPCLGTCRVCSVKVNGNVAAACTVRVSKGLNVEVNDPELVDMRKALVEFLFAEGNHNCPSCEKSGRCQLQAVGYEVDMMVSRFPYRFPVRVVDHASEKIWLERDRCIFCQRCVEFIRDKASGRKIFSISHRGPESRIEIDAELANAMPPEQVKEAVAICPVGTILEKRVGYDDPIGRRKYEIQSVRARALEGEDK

SMILES: Nc1ncnc2c1ncn2[C@@H]1O[C@H](COP(=O)(O)OP(=O)(O)OC[C@H]2OC(O)[C@H](O)[C@@H]2O)[C@@H](O)[C@H]1O (stereo partly drawn) [ADP-ribose]
protein film electrochemistry, inhibition of NAD+ reduction current [1]: effect of injections of ADP-ribose on NAD^+ reduction by HoxFU, confirming that ADP-ribose is an inhibitor

Ki ([2]; read-out: K I(NAD+)): 100 to 300 µM
SMILES: NC(=O)c1ccc[n+]([C@@H]2O[C@H](COP(=O)(O)OP(=O)(O)OC[C@H]3O[C@@H](n4cnc5c(N)ncnc54)[C@H](O)[C@@H]3O)[C@@H](O)[C@H]2O)c1 [NAD^+]

Ki ([2]; read-out: K I(NADH)): 200 to 300 µM
SMILES: NC(=O)C1=CN([C@@H]2O[C@H](COP(=O)(O)OP(=O)(O)OC[C@H]3O[C@@H](n4cnc5c(N)ncnc54)[C@H](O)[C@@H]3O)[C@@H](O)[C@H]2O)C=CC1 [NADH]
